ChEMBL document CHEMBL3392922, “MMV box screening in the Dd2 P. falciparum strain”

System: Plasmodium falciparum
Assay: MMV: IC50 determined against P. falciparum Dd2-luc strain using a Malaria Sybr Green I Fluorescence assay. Starting conditions were 1% trophozoite synchronised parasites at 2% haematocrit. Fluorescence detection completed after 48hr incubation at 37 degrees C under 1% O2, 3% CO2 and balance N2.
Type: functional, organism-based
Details: Dd2, 48 h

Compound	IC50
Cc1ccc(CSCc2ccc(C(=O)NC3CC3)o2)cc1	550 nM
COc1ccc(C2c3ccc4ccccc4c3Oc3ncn(CCCn4ccnc4)c(=N)c32)cc1OC (stereo unspecified)	1230 nM
O=C(Nc1ccc(CN2CCOCC2)cc1)c1ccc(-c2cc(Cl)ccc2Cl)o1	1740 nM
CCOc1cc(Cl)c(C(C)NC(=O)c2cccc(OC)c2)cc1OCC (stereo unspecified)	649 nM
Oc1ccccc1CNCC12CC3CC(CC(C3)C1)C2	283 nM
O=c1cc(NC2CCN(CCCc3ccccc3)CC2)c2cc(Cl)ccc2o1	543 nM
O=C(c1ccccc1F)N(Cc1ccc(Cl)cc1)c1ccccn1	1190 nM
CCc1ccc(Nc2cc(C)nc3nc(C)nn23)cc1	691 nM
CCCCOc1ccc(C(=O)Nc2cc(C)on2)cc1	783 nM
Cc1ccc(Nc2nc(N)c3ccccc3n2)cc1Cl	1100 nM
CCn1nc(-c2ccc(C(=O)OC)cc2)nc2c(=O)n(C)c(=O)nc1-2	691 nM
Cc1ccc(Cn2c(N3CCC(C(=O)NCc4cccs4)CC3)nc3ccccc32)cc1	826 nM
CCOC(=O)c1ccc2nc(-c3ccccc3)cc(O)c2c1	720 nM
CCOc1cc2c(cc1OCC)C(c1cc(Cl)ccc1O)NCC2 (stereo unspecified)	1700 nM
CC(C)CCNCC(O)Cn1c2ccccc2c2ccccc21 (stereo unspecified)	907 nM
Nc1ccc(-c2nc3cc(Oc4ccc(Oc5ccc6[nH]c(-c7ccc(N)cc7)nc6c5)cc4)ccc3[nH]2)cc1	315 nM
CC(C)(C)c1ccc(C2CC3=Nc4ccccc4N(C(=O)c4ccccc4Cl)C(c4ccc(F)cc4)C3=C(O)C2)cc1 (stereo unspecified)	1990 nM
CC(NCc1ccccc1)c1cc(Cl)ccc1O (stereo unspecified)	498 nM
Cc1sc(NC(=O)c2ccco2)c(C(c2cccnc2)N2CCC(Cc3ccccc3)CC2)c1C (stereo unspecified)	1340 nM
CC1(c2ccccc2)Nc2ccccc2-c2nc3ccccc3n21 (stereo unspecified)	263 nM
CCN(Cc1ccccc1)C1CCN(Cc2cc(Br)ccc2O)CC1	603 nM

Compound	IC50
COc1ccc(OC)c(C2C3=C(CC(C)(C)CC3=O)N(c3ccc(Cl)c(Cl)c3)C3=C2C(=O)CC(C)(C)C3)c1	2980 nM
CCOC(=O)C1=CN(C)C=C(C(=O)OCC)C1c1cc(Br)c(OCC)c(OC)c1	458 nM
COc1ccc2c(c1)OC(O)(C(F)(F)C(F)(F)F)CC2=O (stereo unspecified)	370 nM
COc1ccc(NC(=O)C2c3ccccc3C(=O)N(CC(C)C)C2c2cccs2)cc1 (stereo unspecified)	1260 nM
Cc1cc(Nc2ccc(OCc3ccccc3)cc2)nc2cc(O)ccc12	296 nM
COc1ccc(Nc2nc(NCc3ccccc3)c3ccccc3n2)cc1	90.6 nM
Cc1ccc(C)c(Cn2c(N3CCC(C(=O)NCc4cccs4)CC3)nc3ccccc32)c1	1160 nM
CCOC(=O)c1cnc2ccc(CC)cc2c1O	647 nM
COc1ccc(C2c3ccc4ccccc4c3Oc3ncn(CCCN(C)C)c(=N)c32)cc1 (stereo unspecified)	443 nM
COc1ccc2c(=O)cc(C(Cl)(Cl)Cl)oc2c1	958 nM
O=C(Nc1cccc(C(F)(F)F)c1)c1cc(Cl)ccc1O	1090 nM
Cc1cccc(-n2ncc3c(O)nc(-n4nc(C)cc4NC(=O)c4cc5ccccc5o4)nc32)c1	994 nM
CCc1ccc(Nc2cc(C)c3ccc(O)cc3n2)cc1	316 nM
O=C1CC(O)(C(F)(F)C(F)(F)F)Oc2ccccc21 (stereo unspecified)	1030 nM
CCOC(=O)C1(Cc2ccccc2)CCN(Cc2cccc(OC)c2O)CC1	2200 nM
CC1CC(C)CN(C(=O)c2ccc(Cl)cc2Cl)C1 (stereo unspecified)	1880 nM
Clc1cc(Br)ccc1-c1ccc(CNCC2CCNCC2)o1	596 nM
COc1ccccc1CNC(=O)C1c2ccccc2C(=O)N(CC(C)C)C1c1cccs1 (stereo unspecified)	1140 nM
C=C(C)CCC(C)N1CCC(N2CCC(C(=O)NCCc3ccccc3)CC2)CC1 (stereo unspecified)	1460 nM
CCCCCCc1cc2cc(-c3nc4ccccc4[nH]3)c(=Nc3ccccc3C)oc2cc1O	5720 nM
CCOc1ccccc1NC(=O)CN1CCN(C(=O)c2ccco2)CC1	2900 nM

Compound	IC50
Cc1ccc(F)cc1NC(=O)c1cc(Cl)ccc1Nc1ccccc1	558 nM
CCOC(=O)C1=C(C)N=c2sc(=Cc3cc(Cl)ccc3O)c(=O)n2C1c1ccc(OC)cc1 (stereo unspecified)	527 nM
FC(F)(F)c1ccc(Nc2nnnc3ccccc23)cc1	3990 nM
c1ccc2c(NCCCCCCNc3c4c(nc5ccccc35)CCCC4)c3c(nc2c1)CCCC3	545 nM
COc1cc2c(cc1OC)C1=NNC(=O)C1=NC(C)(C)C2	732 nM
Brc1ccc(Nc2nc3ccccc3nc2Nc2ccc(Br)cc2)cc1	1510 nM
OC(CNCc1ccccc1)Cn1c2ccccc2c2ccccc21 (stereo unspecified)	1100 nM
COc1cccc(Cn2c(Oc3ccccc3)nc3c2c(=O)n(C)c(=O)n3C)c1	1150 nM
CCCCc1ccc(NS(=O)(=O)c2cc3c4c(c2)CCN4C(=O)CC3)cc1	3680 nM
CCCOCc1cc(CN2CCN(c3cccc(Cl)c3)CC2)c(O)c2ncccc12	961 nM
COCCn1c(C)nc2ccccc2c1=O	930 nM
Cc1cc(Nc2ccc(C)c(Cl)c2)n2nc(C(F)(F)F)nc2n1	1240 nM
c1ccc(-c2ccc(-c3nc4ccccc4[nH]3)cc2)cc1	2000 nM
COc1ccc2c(c1)C1(Nc3ccccc3-c3nc4ccccc4n31)C(=O)N2 (stereo unspecified)	239 nM
O=C(Nc1ccccc1O)c1ccc(Oc2cccc(C(=O)Nc3ccccc3O)c2)cc1	202 nM
COc1ccc(-c2nc(NC(=O)CS(=O)(=O)c3ccc(F)cc3)sc2C)cc1	515 nM
Cc1ccc(Cl)cc1N1CCN(CCCNC(=O)C2CCN(c3nc4ccccc4[nH]3)CC2)CC1	1300 nM
O=C(NCC(c1ccsc1)N1CCCCCC1)c1ccc(C(F)(F)F)cc1 (stereo unspecified)	467 nM
CCc1ccc(CNCC(O)c2ccccc2)cc1 (stereo unspecified)	1870 nM
COc1cccc(NC(=O)Cn2c(C)c(C#N)c3ccccc32)c1	1270 nM
Cc1sc2ncnc(Sc3nc4ccccc4[nH]3)c2c1C	844 nM

Compound	IC50
Oc1ccc(Br)cc1CN1CCN(Cc2cccc(F)c2)CC1	1290 nM
CCN1CCN(c2cc(C)c3cc(NC(=O)c4ccc(OC)c(OC)c4)ccc3n2)CC1	1850 nM
COCCNC(=O)c1ccc(OC2CCN(Cc3ccc(F)c(F)c3)CC2)c(Cl)c1	754 nM
COc1ccc(-c2c(C)nn3c(N)c(C#N)cnc23)cc1OC	305 nM
CC(=O)c1sc(NC(=O)Nc2ccc(C)cc2C)nc1C	1970 nM
Cn1c(=O)n(C)c2cc(CNCCNc3ccnc4cc(Cl)ccc34)ccc21	197 nM
O=c1nc(C=Cc2ccc(Cl)cc2)oc2ccccc12	1190 nM
COc1cc2cc(C(=O)Nc3ccccc3)c(N)nc2cc1OC	884 nM
COc1ccc(C(=O)Nc2ccc(Cl)cc2C(=O)Nc2ccncc2)cc1	810 nM
COc1ccc(-n2ccnc2SCC(=O)Nc2cc(C)ccc2C)c(OC)c1	351 nM
COc1ccc(C2N(C)c3ccccc3N2C)cc1	1100 nM
OC(Cn1nnc2ccccc21)Cn1c2ccc(Br)cc2c2cc(Br)ccc21 (stereo unspecified)	2030 nM
O=C(Nc1cccc(-c2nc3ccccc3[nH]2)c1)c1cccc(NC(=O)c2ccco2)c1	506 nM
CCCCCC(=O)N1c2ccccc2N=C2CC(c3ccc(OC)c(OC)c3)CC(O)=C2C1c1ccc(C(F)(F)F)cc1 (stereo unspecified)	179 nM
CCOc1ccc2c(c1)CN(Cc1ccc(Cl)cc1)CO2	617 nM
O=C(NC1CCN(Cc2ccccc2)CC1)c1cc(C(=O)NC2CCN(Cc3ccccc3)CC2)cc(C(=O)NC2CCN(Cc3ccccc3)CC2)c1	264 nM
Cc1cc(C)cc(Nc2cc(C)nc3nc(C(F)(F)F)nn23)c1	137 nM
CCOc1ccc(N2C(N)=NC(N)=NC2(C)C)cc1	8130 nM
